SMILES strings stand for the structures. Values after ≈ are worked out from the molar mass of the structure shown. Read-outs that look alike come from different tables or passages of the source.

Experiment [1] concerns E. coli strains (AG100, Pine-Sol/pine oil mutants, Mar mutants). Briefly: Susceptibility by gradient plates (MIC). In kind it is cell-based. Particulars: Escherichia coli. Here is the method: (§1) Mutants resistant to Pine-Sol/pine oil were obtained from stationary phase LB broth cultures of E. coli strain “WEC” (wild type strain 15-5068 from Carolina Biological Supply Co., Burlington, N.C.) and AG100 (George and Levy, J. Bacteriol. 155:531-540, 1983), at 30° C. on nutrient agar (NP 3.5GP) or LB agar with 2-3 days incubation in a variety of ways: using a 6 mm disc method; plating cells on plates or gradient plates (Curiale and Levy, J. Bacteriol. 151:209-215, 1982), containing PINE-SOL™ (product of Clorox Co., Oakland, Calif.) or pine oil itself.
(§2) Antibiotic susceptibility was measured at 30° C. using antibiotic susceptibility discs (Carolina Biological), gradient plates with the drug in the top agar (Curiale and Levy, 1982) or agar dilution plates (concentration steps of 1.5 fold; inocula of 10^5 cells/5 μl spot). While there was a variability of resistance phenotypes, all Pine-Sol/pine oil-selected mutants were also multidrug resistant (Table 1A, B).

Experiment [2] deals with E. coli strain WEC and its Pine-Sol-selected mutant. Briefly: Antibiotic susceptibility by discs (diameter of clearing). It counts as cell-based. The protocol:
as §1, §2

The subject of experiment [3] is E. coli strains bearing mar, soxS or robA plasmids. In kind it is cell-based. An excerpt:
Organic solvent tolerance mediated by the marA, soxS, robA and acrAB loci of E. coli is described in White et al. (J. Bacteriol. 179:6122-6126, 1997).

The test system of the next experiment is marA mRNA. Briefly: Northern blot analysis of marA mRNA with inducer salicylate. In kind it is cell-based, E. coli. Conditions: Mar mutant AG102, mutants AP5 and NP3.5 GP. An excerpt:
Over expression was also seen in mutant APS3 (data not shown). […] We concluded that AP5, NP3.5GP, and APS3, but not AP1, were probably Mar mutants.

[4] abbreviates: read-out: Susceptibility by gradient plates (MIC), strain AG102, Mar mutant of AG100, selected on Tc (2 steps).
The mark [5] stands for this setting: read-out: Susceptibility by gradient plates (MIC), strain AP1, mutant of AG100 selected by pine oil on disc.
Where [6] appears, read: read-out: Susceptibility by gradient plates (MIC), strain AP5, mutant of AG100 selected as for AP1.
[7] abbreviates: read-out: Susceptibility by gradient plates (MIC), strain APS3, mutant of AG100 selected on Pine-Sol gradient (0-1.5%).
Setting [8] is: strain AG100, wildtype, read-out: Susceptibility by gradient plates (MIC).
Setting [9] is: strain HH180, deletion of 39 kb including mar locus, host MM294, read-out: Susceptibility by gradient plates (MIC).
The mark [10] stands for this setting: strain HH188, HH180 containing pHHM183 (mar+), read-out: Susceptibility by gradient plates (MIC).
The mark [11] stands for this setting: strain HH191, HH180 containing pHHM191 (marR2), read-out: Susceptibility by gradient plates (MIC).
Where [12] appears, read: strain HH193, HH180 containing pHHM193 (marR5), read-out: Susceptibility by gradient plates (MIC).

Broadly, the MIC is the smallest concentration in the dilution series that meets the test's criterion for growth inhibition. For `CC1(C)S[C@@H]2[C@H](NC(=O)[C@H](N)c3ccccc3)C(=O)N2[C@H]1C(=O)O` [Ap, ampicillin], the MIC is 85 µg/mL (≈ 243 µM) in experiment [1] (setting [4]); 3 µg/mL (≈ 8.59 µM) in experiment [1] (setting [5]); 7.2 µg/mL (≈ 20.6 µM) in experiment [1] (setting [6]); 7.7 µg/mL (≈ 22 µM) in experiment [1] (setting [7]); < 1.2 µg/mL in experiment [1] (setting [8]); < 0.6 µg/mL in experiment [1] (setting [9]). For the same compound, the MIC in experiment [1] (setting [10]) is < 1 µg/mL; in experiment [1] (setting [11]), 5.4 µg/mL (≈ 15.5 µM); in experiment [1] (setting [12]) it was 5.9 µg/mL (≈ 16.9 µM). The “Susceptibility by discs; diameter of clearing” value (shortened to “Susceptibility by discs”) in experiment [2] (strain WEC, wild type, 30° C.) was found to be 22 mm; in experiment [2] ({}), 12 mm.
Consider `O=C(N[C@H](CO)[C@H](O)c1ccc([N+](=O)[O-])cc1)C(Cl)Cl` [Cm, chloramphenicol], for which the MIC in experiment [1] (setting [4]) is > 35 µg/mL; in experiment [1] (setting [5]), 7.8 µg/mL (≈ 24.1 µM); in experiment [1] (setting [6]), 21 µg/mL (≈ 65 µM); in experiment [1] (setting [7]) it was > 35 µg/mL; in experiment [1] (setting [8]), 2.6 µg/mL (≈ 8.05 µM). The “Susceptibility by discs” value is given as 27 mm in experiment [2] (strain WEC, wild type, 30° C.) and 11 mm in experiment [2] ({}).
Turning to `CCn1cc(C(=O)O)c(=O)c2ccc(C)nc21` [Nal, nalidixic acid], the MIC was 14 µg/mL (≈ 60.3 µM) in experiment [1] (setting [4]); 9.7 µg/mL (≈ 41.8 µM) in experiment [1] (setting [5]); 7.5 µg/mL (≈ 32.3 µM) in experiment [1] (setting [6]); 8.6 µg/mL (≈ 37 µM) in experiment [1] (setting [7]); 1.7 µg/mL (≈ 7.32 µM) in experiment [1] (setting [8]); < 1.8 µg/mL in experiment [1] (setting [9]). The MIC was determined as 3.7 µg/mL (≈ 15.9 µM) in experiment [1] (setting [10]), 9.1 µg/mL (≈ 39.2 µM) in experiment [1] (setting [11]) and 10.9 µg/mL (≈ 46.9 µM) in experiment [1] (setting [12]).
Turning to `CN(C)[C@@H]1C(O)=C(C(N)=O)C(=O)[C@@]2(O)C(O)=C3C(=O)c4c(O)cccc4[C@@](C)(O)[C@H]3C[C@@H]12` [Tc, tetracycline], the MIC in experiment [1] (setting [4]) is > 12.8 µg/mL; in experiment [1] (setting [5]), 2.4 µg/mL (≈ 5.4 µM); in experiment [1] (setting [6]), 4.5 µg/mL (≈ 10.1 µM); in experiment [1] (setting [7]), 5.3 µg/mL (≈ 11.9 µM); in experiment [1] (setting [8]), 1.8 µg/mL (≈ 4.05 µM); in experiment [1] (setting [9]), < 0.6 µg/mL. Moreover, the values for the MIC in experiment [1] (setting [10]), in experiment [1] (setting [11]) and in experiment [1] (setting [12]) were 1.2 µg/mL (≈ 2.7 µM), 8.2 µg/mL (≈ 18.5 µM) and > 11.4 µg/mL, respectively. Besides, the “Susceptibility by discs” value in experiment [2] (strain WEC, wild type, 30° C.) was found to be 21 mm; in experiment [2] ({}), 14 mm.
Regarding `CCCCCC` [n-hexane], the “Growth in presence of organic solvent” value is “+ +” in experiment [3] (AG100 (wild-type), no plasmid); “+ +” in experiment [3] (AG100, plasmid pMAK-TU1); “+ +” in experiment [3] (AG100, plasmid pMAK-TU1 & TU2); “+ +” in experiment [3] (AG100, plasmid pMAK-TU2); “+ +” in experiment [3] (AG100, plasmid pSMarAB); “+ +” in experiment [3] (AG100, plasmid pSRob). Also, the “Growth in presence of organic solvent” value in experiment [3] (AG100, plasmid pSXS) is on record as “+ +”; in experiment [3] (AG100-A (ΔacrAB), no plasmid), “−”; in experiment [3] (AG100-B (acrR mutant), no plasmid), “+ +”; in experiment [3] (AG100K (marCORAB::kan), no plasmid) it was “+ ((+) visible growth(≦100 colonies))”; in experiment [3] (AG100K, plasmid pMAK-TU1) it was “+ ((+) visible growth(≦100 colonies))”; in experiment [3] (AG100K, plasmid pMAK-TU2), “+ +”. Also, the “Growth in presence of organic solvent” value in experiment [3] (AG100K, plasmid pMAK-TUI & TU2) was “+ +”; in experiment [3] (AG100K, plasmid pSMarAB), “+ +”; in experiment [3] (AG100K, plasmid pSRob), “+ +”; in experiment [3] (AG100K, plasmid pSXS), “+ +”; in experiment [3] (AG102 (marR mutation), no plasmid), “+ +”; in experiment [3] (AG102-A (marRl, ΔacrAB), no plasmid), “−”. In addition, the “Growth in presence of organic solvent” value was “−” in experiment [3] (AG102-A, plasmid pSMarAB); “−” in experiment [3] (AG102-A, plasmid pSRob); “−” in experiment [3] (AG102-A, plasmid pSXS); “+ +” in experiment [3] (DJ901 (ΔsoxRS), no plasmid); “+ +” in experiment [3] (DJ901, plasmid pMAK-TU1); “+ +” in experiment [3] (DJ901, plasmid pMAK-TU1 & TU2). Further, the “Growth in presence of organic solvent” value is recorded as “+ +” in experiment [3] (DJ901, plasmid pMAK-TU2); “+ +” in experiment [3] (DJ901, plasmid pSMarAB); “+ +” in experiment [3] (DJ901, plasmid pSRob); “+ +” in experiment [3] (DJ901, plasmid pSXS); “+ +” in experiment [3] (GC4468 (wild-type), no plasmid); “+ +” in experiment [3] (GC4468, plasmid pMAK-TU1). Moreover, the “Growth in presence of organic solvent” value is given as “+ +” in experiment [3] (GC4468, plasmid pMAK-TU1 & TU2); “+ +” in experiment [3] (GC4468, plasmid pMAK-TU2); “+ +” in experiment [3] (GC4468, plasmid pSMarAB); “+ +” in experiment [3] (GC4468, plasmid pSRob); “+ +” in experiment [3] (GC4468, plasmid pSXS); “+ +” in experiment [3] (JHC1069 (cfxB1), no plasmid). The “Growth in presence of organic solvent” value in experiment [3] (JTG1078 (soxR105), no plasmid) is on record as “+ +”; in experiment [3] (MCH164 (Δmar), no plasmid), “+ ((+) visible growth(≦100 colonies))”; in experiment [3] (MCH164, plasmid pMAK-TU1), “+ ((+) visible growth(≦100 colonies))”; in experiment [3] (MCH164, plasmid pMAK-TU1 & TU2) it was “+ +”; in experiment [3] (MCH164, plasmid pMAK-TU2), “+ +”; in experiment [3] (MCH164, plasmid pSMarAB) it was “+ +”. Further, the “Growth in presence of organic solvent” value in experiment [3] (MCH164, plasmid pSRob) is reported as “+ +”; in experiment [3] (MCH164, plasmid pSXS), “+ +”; in experiment [3] (RA4468 (robA::kan), no plasmid) it was “+ ((+) visible growth(≦100 colonies))”; in experiment [3] (RA4468, plasmid pMAK-TU1) it was “+ ((+) visible growth(≦100 colonies))”; in experiment [3] (RA4468, plasmid pMAK-TU1 & TU2), “+ +”; in experiment [3] (RA4468, plasmid pMAK-TU2), “+ +”. Also, the “Growth in presence of organic solvent” value is listed as “+ +” in experiment [3] (RA4468, plasmid pSMarAB); “+ +” in experiment [3] (RA4468, plasmid pSRob); “+ +” in experiment [3] (RA4468, plasmid pSXS).
As to `CCCCC` [n-pentane], in experiment [3] (AG102, Mar mutant of AG100, data not shown), the “Growth in presence of organic solvent” value was “grew”.
As for `O=C(O)c1ccccc1O` [salicylate], in the experiment with marA mRNA, the “Effect of inducer on over expression of marA mRNA” value was “enhanced”.

Source of the values: patent US6448006B1, “Methods and compositions for reducing bacterial tolerance to antibacterials disinfectants and organic solvents” (priority 1997, dated 2002).
